These results are taken from patent US20240383908A1, “SYNTHESIS AND APPLICATION OF PHOSPHATASE DEGRADER” (HINOVA PHARMACEUTICALS INC., priority 2021, published 2024).

This test addresses T1, SHP2 protein (Homo sapiens, UniProt Q06124).
T1 sequence (Q06124 1-593): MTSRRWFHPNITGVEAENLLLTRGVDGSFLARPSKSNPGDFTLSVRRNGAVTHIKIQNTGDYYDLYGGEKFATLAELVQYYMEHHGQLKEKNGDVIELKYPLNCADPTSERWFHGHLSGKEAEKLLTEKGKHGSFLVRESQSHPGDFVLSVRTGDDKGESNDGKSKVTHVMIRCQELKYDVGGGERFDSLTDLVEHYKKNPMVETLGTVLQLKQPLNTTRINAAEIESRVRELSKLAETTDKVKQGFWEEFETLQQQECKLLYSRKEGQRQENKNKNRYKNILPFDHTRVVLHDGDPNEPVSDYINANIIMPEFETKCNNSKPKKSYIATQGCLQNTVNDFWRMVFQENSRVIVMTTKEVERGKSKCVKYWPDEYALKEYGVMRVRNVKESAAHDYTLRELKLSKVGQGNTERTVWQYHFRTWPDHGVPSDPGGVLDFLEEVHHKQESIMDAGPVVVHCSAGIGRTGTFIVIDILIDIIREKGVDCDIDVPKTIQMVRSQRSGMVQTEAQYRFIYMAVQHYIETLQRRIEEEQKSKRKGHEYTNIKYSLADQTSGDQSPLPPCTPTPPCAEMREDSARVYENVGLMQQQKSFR
In words: Degradation activity on SHP2 protein in MIA Paca-2 cells (Western blot, DC50). More on the design: endogenous in cells; host or cells: MIA Paca-2 cells. Particulars: read-out: Degradation activity for differenct cell lines MIA Paca-2 (DC50). It counts as cell-based. The protocol: (1) MV-411 cells were cultured in the cell culture medium, and then well-growing cells were selected and inoculated in a 12-well plate, with 1 mL/well and 1×10^6 cells/well. The plate was incubated overnight in a 5% CO2 cell incubator at 37° C.
(2) 10 mM storage solution of each drug was prepared using dimethylsulfoxide (DMSO). The stock solution was diluted gradually with DMSO before use, and then 1 μL of the compound solution was added to the cell culture well (to ensure that the DMSO concentration in the culture system was […]), so that the final drug concentration is 100 nM, 10 nM, 3 nM, 1 nM, 0.3 nM, and 0.1 nM. Two wells were set for each concentration. The plate was gently shaken and mixed. Additionally, negative control wells (containing an equal amount of DMSO) and positive control wells were included.
(3) After 24 hours of cultivation, the cells were lysed using RIPA cell lysate, and the proteins were extracted. The protein concentration was measured using a BCA assay kit. 5× concentrated protein buffer was loaded, heated at 100° C. for 5 min, and then the sample was stored at −20° C.
(4) For each well, 30 μg of protein was loaded to polyacrylamide gel for electrophoresis.
(5) The protein was transferred from polyacrylamide gel to PVDF membrane, and sealed at room temperature with 5% skimmed milk for 1 h, which was then incubated with the primary antibodies (Anti-SHP2 rabbit mAb and Anti-GAPDH rabbit mAb) at 4° C. overnight. The membrane was washed three times with TBST solution, 10 minutes for each time. After that, the membrane was incubated with the secondary antibodies (horseradish peroxidase labeled goat anti-rabbit IgG) at room temperature for 2 h, and then washed three times with TBST solution, 10 minutes for each time, followed by exposure.
(6) The images were analyzed with Image J grayscale, and the degradation ratio of protein bands in the test group was calculated, based on the negative control group (DMSO) (100%).
(7) Using the Dose-response-inhibition equation in the data processing software GraphPad Prism 8, the DC50 value was obtained (which represents the drug concentration corresponding to 50% degradation of the target protein).
Using similar methods and different cell lines, the degradation activity of the compound according to the present invention on SHP2 protein of different cell lines was tested under suitable culture conditions.
For orientation: A western blot detects proteins with antibodies after separation by electrophoresis.
As a reminder, the DC50 is the concentration at which degradation of the target reaches its halfway point. For `CC1(N)CCN(c2cnc(Sc3cccc(NC(=O)c4ccc(N5CCC(C(=O)NCc6ccc7c(c6)CN(C6CCC(=O)NC6=O)C7=O)CC5)c(F)c4)c3)cn2)CC1` (centres unmarked) [Compound 306], the DC50 was more than 1000 nM.

In the case of `CC1(N)CCN(c2cnc(Sc3cccc(NC(=O)c4ccc(C5=CCC(N6CC=C(c7ccc(C(=O)NCc8ccc9c(c8)CN(C8CCC(=O)NC8=O)C9=O)nc7)CC6)CC5)cc4)c3)cn2)CC1` (centres unmarked) [Compound 307], the DC50 is less than 100 nM. Under `CC1(N)CCN(c2cnc(Sc3cccc(NC(=O)c4ccc(C5=CCC(N6CC=C(c7ccc(C(=O)N8CCN(c9ccc%10c(c9)CN(C9CCC(=O)NC9=O)C%10=O)CC8)nc7)CC6)CC5)cc4)c3)cn2)CC1` (centres unmarked) [Compound 308] stands less than 100 nM. Under `CC1(N)CCN(c2cnc(Sc3cccc(NC(=O)c4ccc(C5=CCC(N6CC=C(c7ccc(C(=O)NCc8ccc9c(c8)CN(C8CCC(=O)NC8=O)C9=O)nn7)CC6)CC5)cc4)c3)cn2)CC1` (centres unmarked) [Compound 309] stands less than 100 nM; under `CC1(N)CCN(c2cnc(Sc3cccc(NC(=O)C4CC(N5CCC(N6CC=C(c7ccc(C(=O)Nc8ccc9c(c8)CN(C8CCC(=O)NC8=O)C9=O)nn7)CC6)CC5)C4)c3)cn2)CC1` (centres unmarked) [Compound 310], less than 100 nM; under `CC1(N)CCN(c2cnc(Sc3cccc(NC(=O)C4CC5(C4)CC(N4CC=C(c6ccc(C(=O)NCc7ccc8c(c7)CN(C7CCC(=O)NC7=O)C8=O)nn6)CC4)C5)c3)cn2)CC1` (centres unmarked) [Compound 311], more than 1000 nM. Under `CC1(N)CCN(c2cnc(Sc3cccc(NC(=O)c4ccc(N5CCC(N6CC=C(c7ccc(C(=O)NCc8ccc9c(c8)CN(C8CCC(=O)NC8=O)C9=O)nc7)CC6)CC5)cc4)c3)cn2)CC1` (centres unmarked) [Compound 312] stands less than 100 nM; under `CC1(N)CCN(c2cnc(Sc3cccc(NC(=O)c4ccc(N5CCC(N6CC=C(c7ccc(C(=O)Nc8ccc9c(c8)CN(C8CCC(=O)NC8=O)C9=O)nc7)CC6)CC5)cc4)c3)cn2)CC1` (centres unmarked) [Compound 313], less than 100 nM. In the case of `CC1(N)CCN(c2cnc(Sc3cccc(NC(=O)c4ccc(N5CCC(N6CC=C(c7ccc(C(=O)NCc8ccc9c(c8)CN(C8CCC(=O)NC8=O)C9=O)nc7)CC6)CC5)nc4)c3)cn2)CC1` (centres unmarked) [Compound 324], the DC50 was less than 100 nM. In the case of `CC1(N)CCN(c2cnc(Sc3cccc(NC(=O)c4ccc(N5CCC(N6CC=C(c7ccc(C(=O)Nc8ccc9c(c8)CN(C8CCC(=O)NC8=O)C9=O)nc7)CC6)CC5)nc4)c3)cn2)CC1` (centres unmarked) [Compound 325] it was less than 100 nM; in that of `CC1(N)CCN(c2cnc(Sc3cccc(NC(=O)c4ccc(N5CCC(N6CC=C(c7ccc(C(=O)NCc8ccc9c(c8)CN(C8CCC(=O)NC8=O)C9=O)nn7)CC6)CC5)nc4)c3)cn2)CC1` (centres unmarked) [Compound 326], less than 100 nM. As to `CC1(N)CCN(c2cnc(Sc3cccc(NC(=O)c4ccc(N5CCC(N6CC=C(c7ccc(C(=O)Nc8ccc9c(c8)CN(C8CCC(=O)NC8=O)C9=O)nn7)CC6)CC5)nc4)c3)cn2)CC1` (centres unmarked) [Compound 327], the half-maximal degradation concentration (DC50) was less than 100 nM. In the case of `C[C@@H]1OCC2(CCN(c3cnc(Sc4cccc(NC(=O)c5ccc(N6CCC(N7CC=C(c8ccc(C(=O)NCc9ccc%10c(c9)CN(C9CCC(=O)NC9=O)C%10=O)nn8)CC7)CC6)cc5)c4)cn3)CC2)[C@@H]1N` (some centres unmarked) [Compound 328] it was less than 100 nM. Consider `CC1(N)CCN(c2cnc(Sc3cccc(NC(=O)c4ccc(N5CCC(N6CC=C(c7ccc(C(=O)NCc8ccc9c(c8)CN(C8CCC(=O)NC8=O)C9=O)nn7)CC6)CC5)c(F)c4)c3)cn2)CC1` (centres unmarked) [Compound 329], for which the DC50 is less than 100 nM. On to `CC1(N)CCN(c2cnc(Sc3cccc(NC(=O)c4ccc(N5CCC(N6CC=C(c7ccc(C(=O)Nc8ccc9c(c8)CN(C8CCC(=O)NC8=O)C9=O)nn7)CC6)CC5)cc4)c3)cn2)CC1` (centres unmarked) [Compound 330], for which the DC50 was less than 100 nM. Under `CC1(N)CCN(c2cnc(Sc3cccc(NC(=O)C(C)(C)c4ccc(N5CCN(c6ccc(C(=O)NCc7ccc8c(c7)CN(C7CCC(=O)NC7=O)C8=O)nc6)CC5)cc4)c3)cn2)CC1` (centres unmarked) [Compound 331] stands more than 1000 nM; under `CC1(N)CCN(c2cnc(Sc3cccc(NC(=O)C4(c5ccc(N6CCN(c7ccc(C(=O)NCc8ccc9c(c8)CN(C8CCC(=O)NC8=O)C9=O)nc7)CC6)cc5)CC4)c3)cn2)CC1` (centres unmarked) [Compound 332], more than 1000 nM. Under `CC1(N)CCN(c2cnc(Sc3cccc(N4CCC(C(=O)N5CCN(c6ccc7c(c6)CN(C6CCC(=O)NC6=O)C7=O)CC5)CC4)c3)cn2)CC1` (centres unmarked) [Compound 333] stands more than 1000 nM; under `CC1(N)CCN(c2cnc(Sc3cccc(NC(=O)c4ccc(N5CCC(C(=O)N6CCN(c7ccc8c(c7)CN(C7CCC(=O)NC7=O)C8=O)CC6)CC5)c(F)c4)c3)cn2)CC1` (centres unmarked) [Compound 335], more than 1000 nM; under `NC1(CO)CCN(c2cnc(Sc3cccc(NC(=O)c4ccc(N5CCC(N6CC=C(c7ccc(C(=O)NCc8ccc9c(c8)CN(C8CCC(=O)NC8=O)C9=O)nc7)CC6)CC5)cc4)c3)cn2)CC1` (centres unmarked) [Compound 336], less than 100 nM. Under `NC1CCN(c2cnc(Sc3cccc(NC(=O)c4ccc(N5CCC(N6CC=C(c7ccc(C(=O)NCc8ccc9c(c8)CN(C8CCC(=O)NC8=O)C9=O)nc7)CC6)CC5)cc4)c3)cn2)CC1F` (centres unmarked) [Compound 337] stands less than 100 nM; under `COc1nc(C2=CCN(C3CCN(c4ccc(C(=O)Nc5cccc(Sc6cnc(N7CCC(C)(N)CC7)cn6)c5)cc4)CC3)CC2)ccc1C(=O)NCc1ccc2c(c1)CN(C1CCC(=O)NC1=O)C2=O` (centres unmarked) [Compound 338], less than 100 nM.

With `CC1(N)CCN(c2cnc(Sc3cccc(NC(=O)C4CCC(N5CCC(N6CC=C(c7ccc(C(=O)NCc8ccc9c(c8)CN(C8CCC(=O)NC8=O)C9=O)nn7)CC6)CC5)CC4)c3)cn2)CC1` (centres unmarked) [Compound 339], the DC50 is less than 100 nM. In the case of `CC1(N)CCN(c2cnc(Sc3cccc(NC(=O)c4cnc(N5CCC(N6CC=C(c7ccc(C(=O)NCc8ccc9c(c8)CN(C8CCC(=O)NC8=O)C9=O)nc7)CC6)CC5)o4)c3)cn2)CC1` (centres unmarked) [Compound 340] it was more than 1000 nM; in that of `CC1(N)CCN(c2cnc(Sc3cccc(N4CCC(CN5CCN(c6ccc7c(c6)CN(C6CCC(=O)NC6=O)C7=O)CC5)CC4)c3)cn2)CC1` (centres unmarked) [Compound 341], more than 1000 nM; in that of `CC1(N)CCN(c2cnc(Sc3cccc(NC(=O)c4csc(N5CCC(N6CC=C(c7ccc(C(=O)NCc8ccc9c(c8)CN(C8CCC(=O)NC8=O)C9=O)nc7)CC6)CC5)n4)c3)cn2)CC1` (centres unmarked) [Compound 358], more than 1000 nM.

In the case of `CC1(N)CCN(c2cnc(Sc3cccc(NC(=O)c4ccc(N5CCC(N6CC=C(c7ncc(C(=O)NCc8ccc9c(c8)CN(C8CCC(=O)NC8=O)C9=O)cc7C(F)(F)F)CC6)CC5)cc4)c3)cn2)CC1` (centres unmarked) [Compound 359], the 50% degradation concentration (DC50) was less than 100 nM.

`CC1(N)CCN(c2cnc(Sc3cccc(NC(=O)c4ccc(C5=CCC(N6CC=C(c7ccc(C(=O)NCc8ccc9c(c8)CN(C8CCC(=O)NC8=O)C9=O)nn7)CC6)CC5)cc4)c3)cn2)CC1` (centres unmarked) [Compound 368]: the DC50 is less than 100 nM. In the case of `CC1(N)CCN(c2cnc(Sc3cccc(NC(=O)c4ccc(N5CCC(N6CCC(c7ccc(C(=O)NCc8ccc9c(c8)CN(C8CCC(=O)NC8=O)C9=O)nc7)CC6)CC5)cc4)c3)cn2)CC1` (centres unmarked) [Compound 372] it was less than 100 nM. In the case of `NC1CCN(c2cnc(Sc3cccc(NC(=O)c4ccc(N5CCC(N6CC=C(c7ccc(C(=O)NCc8ccc9c(c8)CN(C8CCC(=O)NC8=O)C9=O)nn7)CC6)CC5)cc4)c3)cn2)CC1F` (centres unmarked) [Compound 376] it was more than 1000 nM. With `CC1(N)CCN(c2cnc(Sc3cccc(NC(=O)c4ccc(N5CCC(N6CCN(c7ccc(C(=O)NCc8ccc9c(c8)CN(C8CCC(=O)NC8=O)C9=O)nn7)CC6)CC5)cc4)c3)cn2)CC1` (centres unmarked) [Compound 389], the DC50 was less than 100 nM. Under `CC1(N)CCN(c2cnc(Sc3cccc(NC(=O)c4ccc(N5CCC(N6CCN(c7ccc(C(=O)NCc8ccc9c(c8)CN(C8CCC(=O)NC8=O)C9=O)nc7)CC6)CC5)cc4F)c3)cn2)CC1` (centres unmarked) [Compound 392] stands less than 100 nM.
